Reference: ChEMBL document CHEMBL5126524, “Niemann-Pick C1-Like 1 inhibitors for reducing cholesterol absorption” (Eur J Med Chem, 2022)

Biological target: T1, NPC1-like intracellular cholesterol transporter 1 (Homo sapiens, UniProt Q9UHC9)
T1 sequence (Q9UHC9 whole entry): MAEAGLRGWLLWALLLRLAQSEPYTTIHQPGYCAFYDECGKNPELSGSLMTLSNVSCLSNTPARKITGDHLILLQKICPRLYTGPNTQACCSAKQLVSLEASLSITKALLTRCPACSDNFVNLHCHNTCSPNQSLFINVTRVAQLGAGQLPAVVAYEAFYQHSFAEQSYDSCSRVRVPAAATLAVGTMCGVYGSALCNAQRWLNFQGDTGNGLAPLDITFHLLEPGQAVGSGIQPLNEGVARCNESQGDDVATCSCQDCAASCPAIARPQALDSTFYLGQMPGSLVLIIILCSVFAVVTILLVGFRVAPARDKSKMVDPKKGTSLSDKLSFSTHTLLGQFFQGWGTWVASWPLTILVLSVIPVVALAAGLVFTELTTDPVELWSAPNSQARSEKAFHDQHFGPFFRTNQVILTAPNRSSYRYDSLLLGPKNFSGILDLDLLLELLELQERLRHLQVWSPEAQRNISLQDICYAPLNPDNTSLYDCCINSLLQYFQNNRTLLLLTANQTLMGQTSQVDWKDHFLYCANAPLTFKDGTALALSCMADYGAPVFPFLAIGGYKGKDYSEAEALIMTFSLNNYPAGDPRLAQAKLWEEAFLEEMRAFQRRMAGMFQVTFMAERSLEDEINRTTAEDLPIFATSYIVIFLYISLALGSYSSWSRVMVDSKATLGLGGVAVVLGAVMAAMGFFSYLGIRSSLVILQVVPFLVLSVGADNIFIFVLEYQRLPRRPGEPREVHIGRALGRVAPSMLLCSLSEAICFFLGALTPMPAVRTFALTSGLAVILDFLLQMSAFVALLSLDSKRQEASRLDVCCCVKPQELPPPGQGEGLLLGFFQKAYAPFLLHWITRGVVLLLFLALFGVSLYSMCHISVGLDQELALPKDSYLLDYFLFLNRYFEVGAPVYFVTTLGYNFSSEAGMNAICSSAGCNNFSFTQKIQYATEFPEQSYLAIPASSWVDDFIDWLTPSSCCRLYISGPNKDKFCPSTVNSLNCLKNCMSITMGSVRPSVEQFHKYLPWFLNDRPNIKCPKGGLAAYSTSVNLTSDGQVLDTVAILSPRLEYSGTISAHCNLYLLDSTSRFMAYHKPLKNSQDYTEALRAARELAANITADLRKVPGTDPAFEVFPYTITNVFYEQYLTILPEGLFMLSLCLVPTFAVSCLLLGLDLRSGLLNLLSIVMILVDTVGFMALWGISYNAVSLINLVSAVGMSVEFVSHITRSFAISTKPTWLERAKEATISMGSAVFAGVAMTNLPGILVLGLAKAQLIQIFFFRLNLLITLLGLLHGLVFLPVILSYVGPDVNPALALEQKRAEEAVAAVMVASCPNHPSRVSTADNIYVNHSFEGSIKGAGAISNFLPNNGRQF
Test: Inhibition of NPC1L1 (unknown origin) assessed as inhibition of cholesterol cellular uptake by BCA colorimetric assay

## O=C1[C@H](CC[C@H](O)c2ccc(F)cc2)[C@@H](c2ccc(O)cc2)N1c1ccc(F)cc1 [EZETIMIBE]
  IC50: 370 nM
